Results on two molecules are retold here after US8664272B2, “Composition and methods for the treatment of myelodysplastic syndrome and acute myeloid leukemia” (Temple University—Of the Commonwealth System of Higher …, priority 2006, dated 2014).

The test system of one data set is HL-60 cell line. Particulars: cited from earlier work.
Data set [1] deals with myelodysplastic syndrome patients. As to conditions: cited from earlier work.
A further data set relates to HL-60 cells. The experiment in a line: Cytotoxicity of drug combinations towards HL-60 cells (WST-1 assay, median-effect analysis). As to conditions: single agent, concentrations higher than 500 nM, 72 h. It counts as cell-based, human. (Formazan colour is commonly taken as a measure of viable cells.)
Setting [2] is: subcutaneous 75 mg/m^2/day for 7 days every 4 weeks, phase 3.

Method for HL-60 cells: Human promyelocytic leukemia cell line HL-60 were obtained from American Type Culture Collection. The cells were maintained in RPMI 1640 medium supplemented with 10% FBS, penicillin, (50 U/mL), streptomycin, (50 μg/mL). Cell cultures were maintained at 37° C. in 5% CO2 humidified atmosphere. Cells were counted in a hemocytometer, using Trypan blue staining as an indicator of viability.
The test compound, or combination of compounds, was added in 50 μL volume into flat-bottom 96-well plates. Control cultures received the same amount of medium without the test compound. HL-60 cells (1×10^6 cells/mL) were suspended in growth medium and dispensed in 50 μL aliquots into the well containing the compound. The plates were incubated at 37° C. (5% CO2) for 72 h. Cytotoxicity was then determined using the WST-1 assay. In the WST-1 assay cell viability is determined by incubating the cells for a further period of 0.5 to 4 h in the presence of the tetrazolium salt 4-(3-(4-iodophenyl)-2-(4-nitrophenyl)-2H-5-tetrazolio]-1,3-benzene disulfonate. In the presence of viable cells, the compound is reduced by mitochondrial dehydrogenases to a fluorescent product. The absorbance was measured against a background control without cell, in a microtiter plate reader (Bio-Tek Instruments, Elx 800) at 450 nm with a reference wavelength of 630 nm. […]

On to `Nc1ncn([C@@H]2O[C@H](CO)[C@@H](O)[C@H]2O)c(=O)n1` [Azacitidine, 5-azacytidine], for which the apoptosis entry in the data set with HL-60 cell line was “induces apoptosis”. Besides, the significant side-effects entry in data set [1] (clinical trials) is “nausea, anemia, thrombocytopenia, vomiting, pyrexia, leukopenia, diarrhea, fatigue, injection site erythema, constipation, neutropenia, and ecchymosis”. In addition, in data set [1] (setting [2]), the patients responded completely is on record as 5%, the patients responded partially is 10% and the response rate is 15%.
Regarding `COc1cc(OC)c(/C=C/S(=O)(=O)Cc2ccc(OC)c(NCC(=O)[O-])c2)c(OC)c1.[Na+]` [Compound A, (E)-2-(5-((2,4,6-trimethoxystyrylsulfonyl)methyl)-2-methoxyphenylamino)acetic acid sodium salt], the cell death entry in the data set on HL-60 cells was “virtually complete cell death”.
